Consider ten molecules from article PMC12136037, “Type II kinase inhibitors that target Parkinson’s disease–associated LRRK2” (Science Advances, 2025).

Assay in all cases: DSF 100 kinase selectivity screen;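 on dTm: compound tested at 20 µM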
What all share (type): binding

Assay [1] concerns ~100 representative kinases. As to conditions: for dTm: Protein BRD, average of three replicates; for # >5K: number of proteins of the DSF panel with dTm >5K. Put shortly: (§1)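 Each kinase domain, at 2 μM, is mixed with 20 μM test compound and SYPRO Orange in Hepes (20 mM, pH 7.5) with 500 mM NaCl. Temperature is then raised at 3°C/min and fluorescence-monitored unfolding yields the melting temperature change, ΔTm in degrees Celsius.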

Assay [2] concerns the target T1, ~100 representative kinases (Homo sapiens, UniProt Q9Y6E0).
T1 construct: Recombinant protein kinase domains with a concentration of 2 μM
The settings on record: protein MST3; average of three replicates. Put shortly: as §1

Assay [3] has as its target T2, ~100 representative kinases (Homo sapiens, UniProt P15735).
T2 construct: Recombinant protein kinase domains with a concentration of 2 μM
T2 sequence (P15735 1-406): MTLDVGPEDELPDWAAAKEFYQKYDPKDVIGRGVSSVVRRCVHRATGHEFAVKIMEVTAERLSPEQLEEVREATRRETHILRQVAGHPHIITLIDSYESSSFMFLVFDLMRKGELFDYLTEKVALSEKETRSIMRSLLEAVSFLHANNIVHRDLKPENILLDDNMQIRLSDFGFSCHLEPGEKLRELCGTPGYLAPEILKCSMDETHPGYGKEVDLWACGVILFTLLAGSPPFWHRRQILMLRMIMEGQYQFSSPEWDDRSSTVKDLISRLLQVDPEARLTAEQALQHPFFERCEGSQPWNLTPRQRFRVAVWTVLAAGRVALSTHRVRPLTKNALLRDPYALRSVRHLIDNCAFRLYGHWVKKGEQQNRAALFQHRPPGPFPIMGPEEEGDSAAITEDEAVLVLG
As to conditions: protein PHKG2; average of three replicates. An outline of the steps:
as §1

Assay [4] concerns the target T3, ~100 representative kinases (Homo sapiens, UniProt O75582).
T3 construct: Recombinant protein kinase domains with a concentration of 2 μM
The settings on record: Protein RPS6KA5; DSF; average of three replicates. An outline of the steps:
as §1

Assay [5] addresses T4, ~100 representative kinases (Homo sapiens, UniProt Q12866).
T4 construct: Recombinant protein kinase domains with a concentration of 2 μM
T4 sequence (Q12866 21-999): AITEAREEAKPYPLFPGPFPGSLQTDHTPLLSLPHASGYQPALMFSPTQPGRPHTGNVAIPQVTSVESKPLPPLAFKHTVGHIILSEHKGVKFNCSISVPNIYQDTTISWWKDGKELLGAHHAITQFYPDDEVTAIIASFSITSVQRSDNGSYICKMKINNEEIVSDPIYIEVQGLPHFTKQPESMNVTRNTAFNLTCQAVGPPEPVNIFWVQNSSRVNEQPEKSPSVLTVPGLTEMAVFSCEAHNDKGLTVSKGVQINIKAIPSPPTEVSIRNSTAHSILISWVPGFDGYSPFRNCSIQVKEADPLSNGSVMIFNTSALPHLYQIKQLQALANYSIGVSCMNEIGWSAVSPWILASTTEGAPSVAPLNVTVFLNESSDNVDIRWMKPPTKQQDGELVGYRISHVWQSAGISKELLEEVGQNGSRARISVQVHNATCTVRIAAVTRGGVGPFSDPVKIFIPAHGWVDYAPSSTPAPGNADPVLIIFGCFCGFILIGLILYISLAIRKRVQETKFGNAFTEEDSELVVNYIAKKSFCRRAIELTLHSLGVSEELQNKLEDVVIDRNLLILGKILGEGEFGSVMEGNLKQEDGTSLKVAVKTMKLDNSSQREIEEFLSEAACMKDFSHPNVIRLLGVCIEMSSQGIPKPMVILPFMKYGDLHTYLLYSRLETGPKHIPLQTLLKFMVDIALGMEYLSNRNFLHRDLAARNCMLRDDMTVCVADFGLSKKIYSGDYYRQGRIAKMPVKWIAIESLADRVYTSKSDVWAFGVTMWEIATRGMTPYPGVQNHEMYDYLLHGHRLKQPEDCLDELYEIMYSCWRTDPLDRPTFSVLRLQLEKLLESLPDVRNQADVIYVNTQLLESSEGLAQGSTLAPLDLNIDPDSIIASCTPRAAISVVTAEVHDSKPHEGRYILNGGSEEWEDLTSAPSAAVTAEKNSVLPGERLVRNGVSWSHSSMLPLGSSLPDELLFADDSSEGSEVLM
As to conditions: protein MERTK; average of three replicates. Put shortly: as §1

Assay [6] deals with T5, ~100 representative kinases (Homo sapiens, UniProt Q13873).
T5 construct: Recombinant protein kinase domains with a concentration of 2 μM
T5 sequence (Q13873 27-1038): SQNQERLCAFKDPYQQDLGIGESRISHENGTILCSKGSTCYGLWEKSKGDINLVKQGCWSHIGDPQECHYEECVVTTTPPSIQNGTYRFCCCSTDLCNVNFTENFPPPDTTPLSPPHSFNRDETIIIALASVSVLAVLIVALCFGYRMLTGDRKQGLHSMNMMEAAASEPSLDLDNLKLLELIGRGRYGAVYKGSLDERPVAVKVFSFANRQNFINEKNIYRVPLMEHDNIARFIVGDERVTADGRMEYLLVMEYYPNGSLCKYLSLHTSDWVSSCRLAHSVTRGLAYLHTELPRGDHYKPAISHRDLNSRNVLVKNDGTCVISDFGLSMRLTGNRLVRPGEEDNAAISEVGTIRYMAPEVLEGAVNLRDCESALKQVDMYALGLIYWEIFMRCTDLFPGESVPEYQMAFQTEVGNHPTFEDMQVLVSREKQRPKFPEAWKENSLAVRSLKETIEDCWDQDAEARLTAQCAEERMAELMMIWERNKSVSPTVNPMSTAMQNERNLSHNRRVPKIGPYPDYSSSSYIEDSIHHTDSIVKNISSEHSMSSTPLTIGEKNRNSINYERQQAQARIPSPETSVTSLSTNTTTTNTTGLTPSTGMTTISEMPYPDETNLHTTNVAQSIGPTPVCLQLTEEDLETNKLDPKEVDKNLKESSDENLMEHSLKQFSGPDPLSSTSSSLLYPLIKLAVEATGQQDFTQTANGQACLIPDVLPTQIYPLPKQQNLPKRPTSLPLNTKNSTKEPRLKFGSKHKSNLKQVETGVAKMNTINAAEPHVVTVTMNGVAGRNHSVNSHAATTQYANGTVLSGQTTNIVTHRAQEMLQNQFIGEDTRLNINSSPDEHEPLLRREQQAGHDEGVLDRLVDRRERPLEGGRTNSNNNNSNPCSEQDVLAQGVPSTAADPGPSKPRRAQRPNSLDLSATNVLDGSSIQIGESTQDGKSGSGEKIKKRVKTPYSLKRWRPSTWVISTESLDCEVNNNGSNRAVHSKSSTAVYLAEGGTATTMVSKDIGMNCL
The settings on record: Protein BMPR2; average of three replicates. Put shortly: as §1

For assay [7], the target named is T6, ~100 representative kinases (Homo sapiens, UniProt P21675).
T6 construct: Recombinant protein kinase domains with a concentration of 2 μM
The settings on record: Protein TAF1; DSF; average of three replicates. Put shortly:
as §1

Where [8] appears, read: number of kinases with thermal shift >5 K divided by total number of kinases screened.
Setting [9] is: selectivity score: # >5K divided by # of proteins tested in the DSF panel.

T3 sequence (O75582 whole entry, the tested form may be a part): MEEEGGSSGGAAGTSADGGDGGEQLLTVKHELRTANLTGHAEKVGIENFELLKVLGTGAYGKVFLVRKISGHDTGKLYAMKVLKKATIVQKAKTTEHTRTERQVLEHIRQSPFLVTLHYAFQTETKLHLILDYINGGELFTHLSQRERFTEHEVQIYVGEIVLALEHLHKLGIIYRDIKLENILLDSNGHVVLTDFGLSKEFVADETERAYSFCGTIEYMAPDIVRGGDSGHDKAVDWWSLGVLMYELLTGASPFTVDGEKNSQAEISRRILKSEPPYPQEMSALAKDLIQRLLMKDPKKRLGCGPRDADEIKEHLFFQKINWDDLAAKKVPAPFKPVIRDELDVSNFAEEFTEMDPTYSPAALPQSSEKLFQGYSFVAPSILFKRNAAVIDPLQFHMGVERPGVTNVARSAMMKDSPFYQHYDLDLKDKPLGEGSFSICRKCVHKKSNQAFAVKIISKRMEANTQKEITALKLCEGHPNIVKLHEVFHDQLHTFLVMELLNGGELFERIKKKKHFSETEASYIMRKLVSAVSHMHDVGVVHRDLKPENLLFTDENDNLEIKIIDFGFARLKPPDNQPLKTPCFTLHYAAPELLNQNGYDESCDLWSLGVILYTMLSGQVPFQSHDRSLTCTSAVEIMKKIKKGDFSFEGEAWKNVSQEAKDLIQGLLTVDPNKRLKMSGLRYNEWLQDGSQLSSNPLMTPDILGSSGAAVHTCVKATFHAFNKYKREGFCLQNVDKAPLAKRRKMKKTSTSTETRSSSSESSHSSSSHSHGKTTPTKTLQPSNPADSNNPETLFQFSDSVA
T6 sequence (P21675 whole entry, the tested form may be a part): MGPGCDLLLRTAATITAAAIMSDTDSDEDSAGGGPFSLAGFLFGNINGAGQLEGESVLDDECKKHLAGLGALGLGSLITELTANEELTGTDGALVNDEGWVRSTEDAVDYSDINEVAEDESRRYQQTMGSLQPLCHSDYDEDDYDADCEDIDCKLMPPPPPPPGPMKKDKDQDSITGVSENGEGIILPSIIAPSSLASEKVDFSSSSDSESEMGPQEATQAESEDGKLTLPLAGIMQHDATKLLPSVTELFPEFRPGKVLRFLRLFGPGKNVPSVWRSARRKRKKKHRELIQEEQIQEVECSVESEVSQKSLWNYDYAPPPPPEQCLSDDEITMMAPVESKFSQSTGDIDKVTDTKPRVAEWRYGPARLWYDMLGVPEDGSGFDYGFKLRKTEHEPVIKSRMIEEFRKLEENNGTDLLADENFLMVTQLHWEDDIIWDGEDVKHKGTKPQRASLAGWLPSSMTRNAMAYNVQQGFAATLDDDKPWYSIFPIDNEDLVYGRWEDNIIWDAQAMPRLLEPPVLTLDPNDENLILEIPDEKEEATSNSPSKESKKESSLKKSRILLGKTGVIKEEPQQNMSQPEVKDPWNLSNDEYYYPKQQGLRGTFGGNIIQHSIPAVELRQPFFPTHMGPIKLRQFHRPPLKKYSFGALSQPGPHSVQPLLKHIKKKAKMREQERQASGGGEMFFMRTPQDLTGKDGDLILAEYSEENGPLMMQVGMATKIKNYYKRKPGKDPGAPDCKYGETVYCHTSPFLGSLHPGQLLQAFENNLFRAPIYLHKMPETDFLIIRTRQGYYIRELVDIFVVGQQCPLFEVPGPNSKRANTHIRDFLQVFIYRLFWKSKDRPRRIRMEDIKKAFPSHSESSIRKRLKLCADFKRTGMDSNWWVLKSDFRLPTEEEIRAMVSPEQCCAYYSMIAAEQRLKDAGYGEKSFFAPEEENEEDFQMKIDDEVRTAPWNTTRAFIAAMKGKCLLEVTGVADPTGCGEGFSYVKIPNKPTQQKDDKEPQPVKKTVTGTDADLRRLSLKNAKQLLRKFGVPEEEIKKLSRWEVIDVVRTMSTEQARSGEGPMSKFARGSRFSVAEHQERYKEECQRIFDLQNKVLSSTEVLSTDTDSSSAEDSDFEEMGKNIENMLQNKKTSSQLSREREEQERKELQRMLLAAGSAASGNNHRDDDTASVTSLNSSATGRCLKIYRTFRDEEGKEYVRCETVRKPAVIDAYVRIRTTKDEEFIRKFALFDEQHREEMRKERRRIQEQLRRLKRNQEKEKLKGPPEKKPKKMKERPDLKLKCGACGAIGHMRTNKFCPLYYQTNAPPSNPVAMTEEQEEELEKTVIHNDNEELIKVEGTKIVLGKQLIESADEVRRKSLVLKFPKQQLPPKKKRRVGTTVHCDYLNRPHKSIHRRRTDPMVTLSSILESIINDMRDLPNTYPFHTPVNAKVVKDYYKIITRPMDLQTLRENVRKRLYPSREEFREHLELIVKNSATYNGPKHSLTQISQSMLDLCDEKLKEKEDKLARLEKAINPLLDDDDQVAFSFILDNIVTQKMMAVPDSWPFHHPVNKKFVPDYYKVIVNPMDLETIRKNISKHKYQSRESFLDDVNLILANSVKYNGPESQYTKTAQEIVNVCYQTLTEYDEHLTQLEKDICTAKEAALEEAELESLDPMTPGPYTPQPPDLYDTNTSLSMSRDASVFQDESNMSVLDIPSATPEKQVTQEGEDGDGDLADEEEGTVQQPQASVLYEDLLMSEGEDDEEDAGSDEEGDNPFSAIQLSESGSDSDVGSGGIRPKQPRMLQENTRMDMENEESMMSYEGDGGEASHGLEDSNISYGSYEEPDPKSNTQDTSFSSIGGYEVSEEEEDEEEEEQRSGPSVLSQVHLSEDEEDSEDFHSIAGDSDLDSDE
T1 sequence (Q9Y6E0 whole entry, the tested form may be a part): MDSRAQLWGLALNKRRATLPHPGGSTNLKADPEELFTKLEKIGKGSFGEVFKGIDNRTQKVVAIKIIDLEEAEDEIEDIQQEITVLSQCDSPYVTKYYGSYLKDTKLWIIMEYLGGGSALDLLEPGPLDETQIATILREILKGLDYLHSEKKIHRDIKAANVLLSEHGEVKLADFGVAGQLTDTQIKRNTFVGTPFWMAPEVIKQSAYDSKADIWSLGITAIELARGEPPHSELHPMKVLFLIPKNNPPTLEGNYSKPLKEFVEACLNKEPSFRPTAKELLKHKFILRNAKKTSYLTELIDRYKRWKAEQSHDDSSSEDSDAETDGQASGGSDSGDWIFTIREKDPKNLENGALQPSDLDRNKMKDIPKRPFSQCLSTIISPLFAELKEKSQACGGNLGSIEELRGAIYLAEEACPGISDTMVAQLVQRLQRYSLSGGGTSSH

For the molecule `Cc1ccc(NC(=O)C2(C(=O)Nc3cccc(-c4c[nH]c5ncnc(N6CCOCC6)c45)c3)CC2)cc1` [Compound 14], the dTm is on record as -1.11 K in assay [1]; 4.56 K in assay [2]; 0.65 K in assay [3]; 3.04 K in assay [4]; 0.92 K in assay [5]; 1.10 K in assay [6]. In assay [7], the dTm came to 0.34 K. Besides, the “S(5K)” value in assay [1] (setting [8]) came out at 0.22; in assay [1] (setting [9]), 0.220. The “# >5K” value in assay [1] amounted to 22.

As to `CCc1ccc(NC(=O)C2(C(=O)Nc3cccc(-c4c[nH]c5ncnc(N6CCOCC6)c45)c3)CC2)cc1` [Compound 15], the dTm in assay [1] is -2.47 K; in assay [2], 2.23 K; in assay [3], 0.76 K; in assay [4], 2.22 K; in assay [5] it was 0.37 K; in assay [6], 0.80 K. In assay [7], this molecule gave a dTm of 1.78 K. In addition, the “S(5K)” value in assay [1] (setting [8]) amounted to 0.23; in assay [1] (setting [9]), 0.230. For the same molecule, the “# >5K” value in assay [1] stood at 23.

Consider `COc1ccc(NC(=O)C2(C(=O)Nc3cccc(-c4c[nH]c5ncnc(N6CCOCC6)c45)c3)CC2)cc1` [Compound 16], for which the dTm is -2.19 K in assay [1]; 1.58 K in assay [2]; -0.08 K in assay [3]; 0.21 K in assay [4]; -1.03 K in assay [5]; 0.48 K in assay [6]. In assay [7], this molecule yielded a dTm of 0.37 K. The figures for the “S(5K)” value in assay [1] (setting [8]) and in assay [1] (setting [9]) were 0.10 and 0.100, respectively. In addition, in assay [1], the “# >5K” value is given as 10.

On to `O=C(Nc1cccc(-c2c[nH]c3ncnc(N4CCOCC4)c23)c1)C1(C(=O)Nc2ccc(F)c(F)c2)CC1` [Compound 17], for which the dTm in assay [1] is reported as 0.26 K; in assay [2], 6.82 K; in assay [3] it was 2.57 K; in assay [4], 6.14 K; in assay [5] it was 1.34 K; in assay [6] it was 0.95 K. Further, in assay [7], the dTm is 0.99 K. For the same molecule, the results for the “S(5K)” value in assay [1] (setting [8]) and in assay [1] (setting [9]) were 0.32 and 0.320, respectively. Moreover, the “# >5K” value in assay [1] is on record as 32.

With `O=C(Nc1cccc(-c2c[nH]c3ncnc(N4CCOCC4)c23)c1)C1(C(=O)Nc2ccc(F)c(Cl)c2)CC1` [Compound 18], the dTm in assay [1] is 0.45 K; in assay [2], 6.96 K; in assay [3], 3.01 K; in assay [4] it was -1.56 K; in assay [5] it was 1.59 K; in assay [6], 1.13 K. Moreover, in assay [7], the dTm worked out at 1.40 K. The “S(5K)” value in assay [1] (setting [8]) came out at 0.36; in assay [1] (setting [9]), 0.360. Also, the “# >5K” value in assay [1] stood at 36.

For the molecule `O=C(Nc1cccc(-c2c[nH]c3ncnc(N4CCOCC4)c23)c1)C1(C(=O)Nc2ccc(F)c(Br)c2)CC1` [Compound 19], the dTm in assay [1] was 1.82 K; in assay [2] it was 3.29 K; in assay [3], 1.52 K; in assay [4], 6.08 K; in assay [5], 2.86 K; in assay [6], -0.62 K. The molecule also displayed a dTm in assay [7] of 0.00 K. Besides, the results for the “S(5K)” value in assay [1] (setting [8]) and in assay [1] (setting [9]) were 0.31 and 0.308, respectively. Besides, the “# >5K” value in assay [1] is reported as 32.

Regarding `Cc1cc(NC(=O)C2(C(=O)Nc3cccc(-c4c[nH]c5ncnc(N6CCOCC6)c45)c3)CC2)ccc1F` [Compound 20], the dTm in assay [1] is -0.20 K; in assay [2], 8.98 K; in assay [3], 2.79 K; in assay [4], 7.70 K; in assay [5], 2.15 K; in assay [6] it was 1.32 K. For the same molecule, in assay [7], the dTm came out at 0.99 K. Moreover, the “S(5K)” value in assay [1] (setting [8]) was found to be 0.42; in assay [1] (setting [9]), 0.420. For the same molecule, the “# >5K” value in assay [1] was 42.

Turning to `COc1cc(NC(=O)C2(C(=O)Nc3cccc(-c4c[nH]c5ncnc(N6CCOCC6)c45)c3)CC2)ccc1F` [Compound 21], the dTm in assay [1] was -1.43 K; in assay [2], 6.57 K; in assay [3], 0.25 K; in assay [4] it was 4.31 K; in assay [5], 0.18 K; in assay [6], 0.78 K. In addition, the dTm in assay [7] worked out at 0.37 K. Also, the results for the “S(5K)” value in assay [1] (setting [8]) and in assay [1] (setting [9]) were 0.28 and 0.280, respectively. Besides, the “# >5K” value in assay [1] stood at 28.

As to `CC(C)(C)c1cccc(NC(=O)C2(C(=O)Nc3cccc(-c4c[nH]c5ncnc(N6CCOCC6)c45)c3)CC2)c1` [Compound 22], the dTm in assay [1] is on record as 1.52 K; in assay [2], 0.95 K; in assay [3], -0.10 K; in assay [4], 1.50 K; in assay [5], 2.25 K; in assay [6], 0.10 K. In addition, in assay [7], the dTm was determined as 1.24 K. The “S(5K)” value in assay [1] (setting [8]) is given as 0.22; in assay [1] (setting [9]), 0.221. Further, the “# >5K” value in assay [1] turned out to be 23.

In the case of `O=C(Nc1cccc(-c2c[nH]c3ncnc(N4CCOCC4)c23)c1)C1(C(=O)Nc2ccc(F)cc2F)CC1` [Compound 23], the “S (5 K) / share of screened kinases stabilized” value in assay [1] (DSF selectivity panel, thermal shift >5 K) was 16%. Also, the dTm is listed as -1.02 K in assay [1]; 5.25 K in assay [2]; 0.21 K in assay [3]; 0.48 K in assay [4]; 0.52 K in assay [5]; 0.82 K in assay [6]. The molecule also showed a dTm in assay [7] of 0.59 K. For the same molecule, the “S(5K)” value in assay [1] (setting [8]) was 0.16; in assay [1] (setting [9]), 0.160. Further, the “# >5K” value in assay [1] was determined as 16.
